Reference: patent US20240026062A1, “WATER-BASED POLYURETHANE DISPERSIONS AND THEIR PREPARATION” (Dow Global Technologies LLC, priority 2020, published 2024)

What was measured:
[1] = animal testing; cited from earlier work
[2] = Solubility evaluation of diols containing an acid group in NMP or DPGDME; format: physicochemical; on Solubility, DMBA in DPGDGME (75° C.): key: An entry of 'Yes' indicates completely soluble; an entry of 'No' means not fully soluble; on Solubility, DMBA in NMP (25° C.): key: An entry of 'Yes' indicates completely soluble; an entry of 'No' means not fully soluble; on Solubility, DMPA in DPDGME (95° C.): key: An entry of 'Yes' indicates completely soluble; an entry of 'No' means not fully soluble; on Solubility, DMPA in NMP (25° C.): key: An entry of 'Yes' indicates completely soluble; an entry of 'No' means not fully soluble
Procedure: The solubility of certain diols containing an acid group (2,2-dimethylolpropionic acid (DMPA) and 2,2-dimethylolbutanoic acid (DMBA)) in dipropylene glycol dimethyl ether (DPGDME) and in N-methyl-2-pyrrolidone (NMP) are evaluated at different temperatures. The DPGDME used is PROGLYDE™ DMM (The Dow Chemical Company). The following concentrations with corresponding amounts of DMPA or DMBA and of solvent (DPGDME or NMP) are evaluated:
Using a 30 milliliter glass vial with a 24-mm black phenolic screw cap with poly seal liner from Fisher, the […] (DMBA or DMPA) is added at 5 wt. %, 10 wt. %, 15 wt. %, 20 wt. %, and 25 wt. % in the solvent (NMP or DPGDME) as specified in Table 1. Samples are heated on a high throughput heating/mixing station from 25° C. to 100° C. in 10° C. increments while mixing at 500 rpm with a magnetic stir bar. Samples are then removed an image is taken to record solubility.

CN1CCCC1=O [NMP, N-methyl-2-pyrrolidone]
Reproductive toxicity [1]: shows reproductive toxicity

CCC(CO)(CO)C(=O)O [DMBA, 2,2-dimethylolbutanoic acid]
Solubility, DMBA in DPGDGME (75° C.) ([2]; 5 weight % in DPGDGME, 75° C.): Yes | Solubility, DMBA in NMP (25° C.) ([2]; 5 weight % in NMP): Yes | Solubility, DMBA in DPGDGME (75° C.) ([2]; 10 weight % in DPGDGME, 75° C.): Yes | Solubility, DMBA in NMP (25° C.) ([2]; 10 weight % in NMP): Yes | Solubility, DMBA in DPGDGME (75° C.) ([2]; 15 weight % in DPGDGME, 75° C.): Yes | Solubility, DMBA in NMP (25° C.) ([2]; 15 weight % in NMP): Yes | Solubility, DMBA in DPGDGME (75° C.) ([2]; 20 weight % in DPGDGME, 75° C.): Yes | Solubility, DMBA in NMP (25° C.) ([2]; 20 weight % in NMP): Yes | Solubility, DMBA in DPGDGME (75° C.) ([2]; 25 weight % in DPGDGME, 75° C.): Yes | Solubility, DMBA in NMP (25° C.) ([2]; 25 weight % in NMP): Yes | Solubility in DPGDME ([2]; 75° C.): fully dissolve | Solubility in both solvents tested (NMP and DPGDME) ([2]; all concentrations up to 25 weight %, varying temperatures): soluble

CC(CO)(CO)C(=O)O [DMPA, 2,2-dimethylolpropionic acid]
Solubility, DMPA in DPDGME (95° C.) ([2]; 5 weight % in DPDGME, 95° C.): No | Solubility, DMPA in NMP (25° C.) ([2]; 5 weight % in NMP): Yes | Solubility in DPGDGME ([2]; 5 weight %, 95° C.): not fully soluble | Solubility, DMPA in DPDGME (95° C.) ([2]; 10 weight % in DPDGME, 95° C.): No | Solubility, DMPA in NMP (25° C.) ([2]; 10 weight % in NMP): Yes | Solubility, DMPA in DPDGME (95° C.) ([2]; 15 weight % in DPDGME, 95° C.): No | Solubility, DMPA in NMP (25° C.) ([2]; 15 weight % in NMP): Yes | Solubility, DMPA in DPDGME (95° C.) ([2]; 20 weight % in DPDGME, 95° C.): No | Solubility, DMPA in NMP (25° C.) ([2]; 20 weight % in NMP): Yes | Solubility, DMPA in DPDGME (95° C.) ([2]; 25 weight % in DPDGME, 95° C.): No | Solubility, DMPA in NMP (25° C.) ([2]; 25 weight % in NMP): Yes | Solubility in DPGDME (overall) ([2]; in DPGDME): poor | Solubility in NMP ([2]; room temperature (25° C.), all concentrations up to 25 weight %, upon mixing in NMP): completely soluble
